Results published in ChEMBL document CHEMBL4145638 (J Med Chem, 2018).

How the values were obtained:
in vitro [1] = details: human, liver microsomes
in vitro [2] = details: human, liver
in vitro [3] = details: human, liver microsomes; remark: listed apart in the source
in vitro [4] = details: chicken, chicken embryo fibroblasts
Neuraminidase [5] = molecular target: T1, Neuraminidase (Influenza A virus, UniProt B4URF0); parameters: species or system A/Babol/36/2005(H3N2)
Neuraminidase [6] = molecular target: T1, Neuraminidase; parameters: species or system A/Anhui/1/2013(H7N9)
Influenza A virus [7] = experiment: microbe, parasite or virus in culture; details: A/Puerto Rico/8/1934(H1N1), MDCK, 48 h
in vitro [8] = details: dog, MDCK cells
Neuraminidase [9] = molecular target: T1, Neuraminidase; parameters: species or system Influenza A virus (A/California/04/2009(H1N1))
Influenza A virus [10] = experiment: microbe, parasite or virus in culture; details: MDCK, 48 h
Neuraminidase [11] = molecular target: T1, Neuraminidase
[12] = molecular target: Neuraminidase (Influenza A virus (A/Memphis/1/1971(H3N2)), UniProt P03471); experiment: Inhibition of Influenza A virus Taiwan/3446/2002 (H3N2) neuraminidase activity using fluorogenic substrate MU-NANA pre-incubated for 30 mins before fluorogenic substrate addition and measured after 1 hr by spectrofluorometry
Neuraminidase [13] = molecular target: T1, Neuraminidase; experiment: Inhibition of Influenza A virus SN33 (H1N1) neuraminidase activity using fluorogenic substrate MU-NANA pre-incubated for 30 mins before fluorogenic substrate addition and measured after 1 hr by spectrofluorometry
[14] = molecular target: Neuraminidase (Influenza A virus (A/Memphis/1/1971(H3N2)), UniProt P03471); experiment: Inhibition of Influenza A virus (H3N2) neuraminidase activity
Neuraminidase [15] = molecular target: T1, Neuraminidase; experiment: Inhibition of Influenza A virus (H1N1) neuraminidase activity
[16] = molecular target: Neuraminidase (Influenza A virus (A/Memphis/1/1971(H3N2)), UniProt P03471); experiment: Inhibition of Influenza A virus (A/Paris/908/97 (H3N2)) neuraminidase activity by fluorometric assay
Neuraminidase [17] = molecular target: T1, Neuraminidase; experiment: Inhibition of Influenza A virus (A/Paris/2590/2009(H1N1)) neuraminidase activity by fluorometric assay
in vitro [18] = details: human, plasma
in vitro [19] = details: human, liver microsomes; remark: listed apart in the source
Mus musculus [20] = experiment: Acute toxicity in Kunming mouse assessed as change in body weight at 0.5 to 1 g/kg, ig; assay type: organism-based; details: in vivo, po
in vitro [21] = details: human, plasma; remark: listed apart in the source
in vitro [22] = details: human, plasma; remark: listed apart in the source
[23] = human, plasma, 2 h, 100 µM
Influenza A virus [24] = test system: Influenza A virus
Mus musculus [25] = experiment: Acute toxicity in Kunming mouse assessed as mortality at 0.5 to 1 g/kg, ig; assay type: organism-based; details: in vivo, po
in vitro [26] = details: human, plasma; remark: listed apart in the source
[27] = Drug level in human liver microsomes treated with Ethyl(3R,4R,5S)-4-acetamido-5-((4-(diethylamino)benzyl)-amino)-3-(pentan-3-yloxy)cyclohex-1-ene-1-carboxylate assessed as compound formation in presence of NADPH by LC/MS/MS analysis; assay type: ADME, microsome
in vitro [28] = details: human, liver microsomes; remark: listed apart in the source
[29] = Drug metabolism in human liver microsomes assessed as (3R,4R,5S)-4-Acetamido-5-((4(diethylamino)benzyl)amino)-3-(pentan-3-yloxy)cyclohex-1-ene-1-carboxylic acid formation in presence of NADPH by LC/MS/MS analysis; assay type: ADME, microsome
in vitro [30] = details: human, plasma; remark: listed apart in the source

T1 sequence (B4URF0 whole entry): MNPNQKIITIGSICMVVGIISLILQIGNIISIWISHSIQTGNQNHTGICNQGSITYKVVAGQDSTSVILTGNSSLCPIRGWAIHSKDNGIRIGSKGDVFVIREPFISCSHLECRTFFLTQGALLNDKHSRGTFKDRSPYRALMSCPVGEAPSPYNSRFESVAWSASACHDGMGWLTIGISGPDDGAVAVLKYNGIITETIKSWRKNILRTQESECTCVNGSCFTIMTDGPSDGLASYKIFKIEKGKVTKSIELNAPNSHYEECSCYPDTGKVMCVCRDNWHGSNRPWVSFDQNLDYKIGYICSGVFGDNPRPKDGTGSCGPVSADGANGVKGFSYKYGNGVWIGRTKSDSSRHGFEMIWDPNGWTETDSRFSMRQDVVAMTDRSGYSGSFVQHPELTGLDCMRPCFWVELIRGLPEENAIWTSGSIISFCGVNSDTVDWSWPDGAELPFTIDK
Sequence of Neuraminidase (Influenza A virus (A/Memphis/1/1971(H3N2)), UniProt P03471) (P03471 whole entry): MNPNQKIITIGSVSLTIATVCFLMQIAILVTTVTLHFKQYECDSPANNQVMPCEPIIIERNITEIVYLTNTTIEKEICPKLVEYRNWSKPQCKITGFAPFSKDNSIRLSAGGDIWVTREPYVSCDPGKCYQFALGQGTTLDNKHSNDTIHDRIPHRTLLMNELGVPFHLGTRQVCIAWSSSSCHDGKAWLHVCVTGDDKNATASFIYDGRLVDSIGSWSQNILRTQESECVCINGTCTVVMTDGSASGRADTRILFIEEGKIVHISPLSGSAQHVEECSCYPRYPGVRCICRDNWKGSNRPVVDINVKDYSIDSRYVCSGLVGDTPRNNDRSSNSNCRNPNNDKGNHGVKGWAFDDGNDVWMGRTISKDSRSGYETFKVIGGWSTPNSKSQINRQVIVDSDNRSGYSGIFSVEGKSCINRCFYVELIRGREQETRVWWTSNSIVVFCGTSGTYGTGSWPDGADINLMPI

SMILES | CC50 at 48 h (in vitro [4]) | IC50 (Neuraminidase [5]) | IC50 (Neuraminidase [6]) | EC50 (Influenza A virus [7]) | CC50 at 48 h (in vitro [8]) | IC50 (Neuraminidase [9]) | EC50 (Influenza A virus [10]) | IC50 (Neuraminidase [11]) | also measured
C[C@]12CC[C@H]3[C@@H](CCC4=CC(=O)CC[C@@]43C)[C@@H]1CC[C@@H]2O [TESTOSTERONE] | – | – | – | – | – | – | – | – | half-life at 10 min (in vitro [1]): 26.6 min; CLint scaled at 10 min (in vitro [2]): 46.9 mL/min/kg; microsomal CLint at 10 min (in vitro [3]): 52.1 µL/min/mg
CCC(CC)O[C@@H]1C=C(C(=O)O)C[C@H](NCc2ccc(N(C)c3ccccc3)cc2)[C@H]1NC(C)=O | > 200 µM | 0.00565 µM | 0.0114 µM | 1.95 µM | > 250 µM | 0.0298 µM | 25.6 µM | 0.00229 µM | –
CC(=O)N[C@H]1[C@H]([C@@H](O)[C@@H](O)CO)OC(C(=O)O)=C[C@@H]1NC(=N)NC(=O)CSc1cccc2ccccc12 | – | – | – | – | – | – | – | – | IC50 [12]: 0.025 µM; IC50 (Neuraminidase [13]): 0.021 µM
CCC(CC)O[C@@H]1C=C(C(=O)O)C[C@H](NCc2ccc(N(C)C)cc2)[C@H]1NC(C)=O | > 200 µM | 0.00411 µM | 0.00841 µM | – | – | 0.00409 µM | – | 0.00574 µM | –
CCC(CC)O[C@@H]1C=C(C(=O)O)[C@H](n2cc(C(O)CC)nn2)[C@H](N)[C@H]1NC(C)=O (stereo partly drawn) | – | – | – | – | – | – | – | – | Ki [14]: 0.02 µM; Ki (Neuraminidase [15]): > 0.1 µM
CCC(CC)O[C@@H]1C=C(C(=O)O)[C@H](n2cc(C(O)CC)nn2)[C@H](NC(=N)N)[C@H]1NC(C)=O (stereo partly drawn) | – | – | – | – | – | – | – | – | Ki [14]: 0.004 µM; Ki (Neuraminidase [15]): > 0.1 µM
CC(=O)N[C@H]1[C@H]([C@H](O)[C@H](O)CO)OC(C(=O)O)=C(C/C=C/c2ccc(C)cc2)[C@@H]1O | – | – | – | – | – | – | – | – | Ki [16]: 219 µM; Ki (Neuraminidase [17]): 1.7 µM
CCC(CC)O[C@@H]1C=C(C(=O)O)C[C@H](NCc2ccc(N(CC)c3ccccc3)cc2)[C@H]1NC(C)=O | > 200 µM | 0.474 µM | 2.59 µM | – | – | 0.698 µM | – | 0.56 µM | –
CCC(CC)O[C@@H]1C=C(C(=O)O)C[C@H](NCc2ccc(NC(C)=O)cc2)[C@H]1NC(C)=O | > 200 µM | – | – | – | – | – | – | – | –
CCC(CC)O[C@@H]1C=C(C(=O)O)C[C@H](NCc2ccc(N3CCCCC3)cc2)[C@H]1NC(C)=O | > 200 µM | 0.0171 µM | 0.0405 µM | – | – | 0.0186 µM | – | 0.0207 µM | –
CCC(CC)O[C@@H]1C=C(C(=O)O)C[C@H](NCc2ccc(N3CCSCC3)cc2)[C@H]1NC(C)=O | > 200 µM | 0.0626 µM | 0.156 µM | 4.4 µM | > 250 µM | 0.0484 µM | 19 µM | 0.0742 µM | –
CCC(CC)O[C@@H]1C=C(C(=O)O)C[C@H](N)[C@H]1NC(C)=O [OSELTAMIVIR CARBOXYLATE] | > 200 µM | – | – | 0.04 µM | > 250 µM | – | 0.9 µM | – | –
CCC(CC)O[C@@H]1C=C(C(=O)O)C[C@H](NCc2ccc(N(CC)CC)cc2)[C@H]1NC(C)=O | > 200 µM | 0.00105 µM | 0.00179 µM | 0.07 µM | > 250 µM | 0.00055 µM | 1.7 µM | 0.00035 µM | remaining at 10 min, 100 µM (in vitro [18]): 118%; half-life at 10 min (in vitro [1]): > 145 min; remaining at 1 h (in vitro [19]): 95.4%; CLint scaled at 10 min (in vitro [2]): < 8.6 mL/min/kg; Activity (Mus musculus [20]): Non-Toxic; remaining at 0.5 h, 100 µM (in vitro [21]): 120%; microsomal CLint at 10 min (in vitro [3]): < 9.6 µL/min/mg; remaining at 0 min, 100 µM (in vitro [22]): 100%; Stability [23]: 120.7%; EC50 (Influenza A virus [24]): 0.61 µM; Activity (Mus musculus [25]): Non-Toxic; remaining at 1 h, 100 µM (in vitro [26]): 120%; Drug metabolism [27]: Metabolite_Detected; remaining at 1 h (in vitro [28]): 82.7%
CCC(CC)O[C@@H]1C=C(C(=O)O)C[C@H](NCCCNc2cccc(Cl)c2C)[C@H]1NC(C)=O | – | – | – | – | – | – | – | – | IC50 [14]: 0.031 µM; IC50 (Neuraminidase [15]): 0.00059 µM
CCC(CC)O[C@@H]1C=C(C(=O)O)C[C@H](NCc2ccc(-c3cccs3)cc2)[C@H]1NC(C)=O | > 200 µM | 0.354 µM | – | – | – | 0.0213 µM | – | – | –
CCC(CC)O[C@@H]1C=C(C(=O)O)C[C@H](NCc2ccc(-n3cccc3)cc2)[C@H]1NC(C)=O | > 200 µM | 0.327 µM | 1.82 µM | 0.69 µM | > 250 µM | 0.0593 µM | 29 µM | 0.504 µM | –
O=C(O)Cc1ccccc1Nc1c(Cl)cccc1Cl [DICLOFENAC] | – | – | – | – | – | – | – | – | half-life at 10 min (in vitro [1]): 12.3 min; CLint scaled at 10 min (in vitro [2]): 101 mL/min/kg; microsomal CLint at 10 min (in vitro [3]): 112 µL/min/mg
CC(=O)N[C@H]1[C@H]([C@H](O)[C@H](O)CO)OC(C(=O)O)=C[C@@H]1NC(=N)N [ZANAMIVIR] | > 200 µM | – | – | 0.05 µM | > 250 µM | – | 0.27 µM | – | –
CCC(CC)O[C@@H]1C=C(C(=O)O)C[C@H](NCc2ccc(Nc3ccccc3)cc2)[C@H]1NC(C)=O | > 200 µM | 0.0311 µM | 0.0942 µM | – | – | 0.0667 µM | – | 0.0274 µM | –
CCC(CC)O[C@@H]1C=C(C(=O)O)C[C@H](NCc2ccc(-n3cccn3)cc2)[C@H]1NC(C)=O | > 200 µM | 0.869 µM | 9.12 µM | – | – | 0.297 µM | – | 0.593 µM | –
CCOC(=O)C1=C[C@@H](OC(CC)CC)[C@H](NC(C)=O)[C@@H](NCc2ccc(N(CC)CC)cc2)C1 | – | – | – | – | – | – | – | – | half-life at 10 min (in vitro [1]): 8.4 min; remaining at 1 h (in vitro [19]): 87.1%; Drug metabolism [29]: Metabolite_Detected; CLint scaled at 10 min (in vitro [2]): 149 mL/min/kg; microsomal CLint at 10 min (in vitro [3]): 165 µL/min/mg; remaining at 1 h (in vitro [28]): 0.6%
CC(C)[N+](C)(CCOC(=O)C1c2ccccc2Oc2ccccc21)C(C)C [PROPANTHELINE BROMIDE] | – | – | – | – | – | – | – | – | remaining at 10 min, 100 µM (in vitro [18]): 73.4%; remaining at 0.5 h, 100 µM (in vitro [21]): 44.6%; remaining at 0 min, 100 µM (in vitro [22]): 100%; remaining at 2 h, 100 µM (in vitro [30]): 1.8%; remaining at 1 h, 100 µM (in vitro [26]): 16.8%
CCC(CC)O[C@@H]1C=C(C(=O)O)C[C@H](NCc2ccc(N3CCCC3)cc2)[C@H]1NC(C)=O | > 200 µM | 0.00181 µM | 0.00651 µM | 0.22 µM | > 250 µM | 0.00231 µM | 2.35 µM | 0.00213 µM | –
